In ChEMBL document CHEMBL1144616, “Synthesis and biological evaluation of 7-azaindole derivatives, synthetic cytokinin analogues” (Bioorg Med Chem Lett, 2007):
Calls of active or inactive are those of the source. The rule behind the calls is not given here.

Key:
HL-60 [1] = experiment: Antiproliferative activity against human HL60 cells; type: functional, cell-based
HL-60 [2] = experiment: Proapoptotic effect in human HL60 cells at 10 uM; type: functional, cell-based
HL-60 [3] = experiment: Cell cycle arrest in human HL60 cells assessed as increase in preG1 fraction relative to control; type: functional
HL-60 [4] = experiment: Proapoptotic effect in human HL60 cells at 500 uM; type: functional, cell-based

IC50 (HL-60 [1]) [µM]	SMILES	Activity (HL-60 [2])	Activity (HL-60 [3]) [%]	Activity (HL-60 [4])
23.7	c1ccc(CCNc2ccnc3[nH]ccc23)cc1	Active	–	–
23.6	c1ccc(N2CCN(c3ccnc4[nH]ccc34)CC2)cc1	Active	–	–
23.5	c1ccc(Nc2ccnc3[nH]ccc23)cc1	Active	39.9	–
> 100	Cn1ccc2c(NCCc3ccccc3)ccnc21	–	–	Active
12.6	c1ccc(CNc2ccnc3[nH]ccc23)cc1	Active	–	–
> 100	Cn1ccc2c(Nc3ccccc3)ccnc21	–	–	Active
> 100	Cn1ccc2c(NCc3ccccc3)ccnc21	–	–	Active
> 100	Cn1ccc2c(N3CCN(c4ccccc4)CC3)ccnc21	–	–	Active

SMILES	IC50 (HL-60 [1]) [µM]	Activity (HL-60 [2])	Activity (HL-60 [3]) [%]	Activity (HL-60 [4])
c1coc(CNc2ncnc3[nH]cnc23)c1 [KINETIN]	21.9	–	–	–
c1ccc(CNc2ncnc3[nH]cnc23)cc1 [6-BENZYLAMINOPURINE]	> 100	–	–	–
